Laboratory results taken from patent publication US20220242853A1, “MODIFIED CYANINE DYES AND CONJUGATES THEREOF” (BRACCO IMAGING S.P.A., priority 2019, published 2022).

What was measured:
[1] = target: T1, human serum albumin (HSA) (Homo sapiens, UniProt P02768); assay: Binding affinity to human serum albumin (absorbance peak shift or ultrafiltration method); conditions: phosphate buffer, 25° C., one of the two methods; read-out: HSA affinity (KA) (converted)
T1 construct: purchased Sigma Aldrich A9511
Protocol: Binding affinity to human serum albumin (HSA; Sigma Aldrich, A9511) was measured using two methods, according to the level of binding affinity of the compounds.
The first method, optimal for compounds which strongly interact with HSA, is based on the analysis of the absorbance spectrum peak shift after the incubation of the dye in solutions containing HSA. Briefly, the samples were incubated at a fixed concentration (1 μM) with HSA dilutions (1×10^−6-4×10^−4M), in phosphate buffer for 5 min in the spectrophotometer at 25° C. before measurements. The measure was performed at the maximum absorbance wavelength of the shifted peak.
The second method, optimal for compound with low affinity for HSA, is based on measuring the variation of the absorbance of solutions containing the dye and various concentrations of HSA after ultrafiltration. Briefly, each compound was incubated at a fixed concentration (2 μM) with HSA dilutions (1×10^−6-4×10^−4 M), in phosphate buffer. The samples were centrifuged (10,000 g for 30 min at 25° C.) in a Microcon device (10 kDa MWCO, Amicon Ultra-0.5 Centrifugal Filter Unit with Ultracel-10 membrane, Millipore) and the absorbance measurements of the filtrates were obtained with the spectrophotometer at the maximum absorbance wavelength of the fluorophore.
For both methods, the affinity constant (KA, M^−1) was calculated by fitting the raw data with the following formula:
wherein ΔA/b=Absorbance measured (b=1 cm) KRL=KA calculated by regression analysis (curve fitting) Δε·Rt calculated by regression analysis (curve fitting) [L]=Albumin concentration
In the first method, ΔA/b corresponds to the absorbance measured for each sample, whereas in the second method ΔA/b is obtained subtracting the absorbance of the control sample (dye without HSA) to the absorbance of each other sample.
However, the measurement of the affinity constant is more precise when the suitable method is used as a function of the affinity level of the compound.

[2] = test system: WM-266-4 human melanoma cells; assay: Cell uptake by flow cytometry (FACS); assay type: cell-based
Protocol: The human melanoma cell line WM-266-4 (ATCC, CRL-1676) was used as in vitro model to assess the cell uptake of representative integrin-binding Compounds 1 and 3, based on the high expression of the integrin receptors, particularly αvβ3, on the membrane of these cells (Capasso et al., PlosOne 2014).
Adherent cells at about 70% confluence were incubated with the compounds 1 or 3 (1 μM) for 2h at 37° C. (5% CO2) in presence of Dulbecco's Modified Eagle's Medium (DMEM) supplemented with 10% FBS, 2 mM glutamine, 100 IU/mL penicillin and 100 μg/mL streptomycin. After two washing steps with PBS, cells were detached using 0.1 mM EDTA in PBS, centrifuged and suspended in buffer (PBS, 0.5% BSA, 0.1% NaN3) for flow cytometry experiments. Fluorescence Activated Cell Sorting (FACS) was used to detect the fluorescence signal within the cells, as measure of cell uptake. Samples were excited with an Argon laser and the emission detected using a 670 nm longpass filter. Values of fluorescence intensity were obtained from the histogram statistic produced by the instrument software.
The residual internalization was calculated by considering the value of fluorescence intensity in absence of the competitor as 100%.
Furthermore, to assess the effect of biological fluids on the cell uptake, parallel experiments were performed incubating the cells with a compounds of the invention in presence of human serum from male AB plasma (Sigma Aldrich, H4522) or human albumin (Sigma Aldrich, A9511). The residual internalization was calculated by considering the value of fluorescence intensity in absence of the serum as 100%. Such uptake assessment also represents an indication of the percentage of compound which is sequestered by the plasma proteins, in particular albumin, when it diffuses through the vascular compartment before reaching the tissue of interest and the particular targeted receptor.

[3] = test system: HT-29 cells; assay: Tumor uptake by optical imaging, subcutaneous human colorectal cancer model; assay type: in vivo, Athymic nude mice; conditions: iv 1 nmol, tumor vs muscle
Protocol: Parallel experiments were performed in an animal model of human colorectal cancer (subcutaneous), using HT-29 cells, expressing low levels of integrin receptors. Briefly, the human colorectal adenocarcinoma cells HT-29 (ATCC, HTB-38) were cultured in McCoy's 5A medium supplemented with 10% foetal bovine serum, 2 mM glutamine, 100 IU/mL penicillin and 100 μg/mL streptomycin. Male Athymic nude mice, 4-6 weeks of age (Envigo), underwent subcutaneous implantation (right flank) of about 5 million cells suspended in 0.1 mL of serum-free medium. Mice were housed 4 per cage with food and water ad libitum. […] Then, AIN-76a rodent diet irradiated (Research Diets), a special diet that reduces auto-fluorescence, was used up to the end of the experiments. Tumor growth was monitored by longitudinal assessments using a caliper up to the target size of 300-600 mm^3 (3-4 weeks after cell implantation). […]
In vivo imaging was performed under gas anesthesia (Sevofluorane 6-8% in oxygen). […] Regions of interest (ROIs) were drawn on the tissues of interest for each fluorescence image at every time point to evaluate signal intensity (expressed as Average Radiant Efficiency). The ratio between the fluorescence signal in the tumor and in the muscle (background tissue) was then calculated to assess the contrast.

T1 sequence (P02768 25-609): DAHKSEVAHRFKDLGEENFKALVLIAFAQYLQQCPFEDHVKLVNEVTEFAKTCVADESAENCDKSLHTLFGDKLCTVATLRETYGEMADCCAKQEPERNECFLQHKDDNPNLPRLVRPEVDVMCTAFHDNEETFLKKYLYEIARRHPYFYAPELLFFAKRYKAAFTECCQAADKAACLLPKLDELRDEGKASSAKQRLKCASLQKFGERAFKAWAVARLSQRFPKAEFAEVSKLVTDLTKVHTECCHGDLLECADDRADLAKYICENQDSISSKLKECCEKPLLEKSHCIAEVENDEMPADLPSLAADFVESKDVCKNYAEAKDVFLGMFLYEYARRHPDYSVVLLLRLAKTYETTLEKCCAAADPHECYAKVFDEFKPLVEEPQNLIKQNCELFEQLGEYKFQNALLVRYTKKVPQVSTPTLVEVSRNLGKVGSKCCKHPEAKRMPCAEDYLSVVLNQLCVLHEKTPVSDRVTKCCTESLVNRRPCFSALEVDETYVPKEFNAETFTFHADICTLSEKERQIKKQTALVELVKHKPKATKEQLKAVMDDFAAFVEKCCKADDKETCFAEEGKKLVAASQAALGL

`CC(CC[N+]1=C(/C=C/C=C/C=C/C=C2/N(CCCCCC(=O)NCCCC[C@@H]3NC(=O)C(Cc4ccccc4)NC(=O)[C@H](CC(=O)O)NC(=O)CNC(=O)[C@H](CCCNC(=N)N)NC3=O)c3ccc(C(=O)NCC(O)C(O)C(O)C(O)CO)cc3C2(C)C)C(C)(C)c2cc(C(=O)NCC(O)C(O)C(O)C(O)CO)ccc21)S(=O)(=O)[O-]` (some centres unmarked) [Compound 1] was tested. Which Kd [1] did it give?
The Kd was 159 µM.

What about the “Residual uptake in the presence of 4% HSA” value ([2]; 1 μM, 2h at 37° C.) of the same molecule?
The value was 70%.

What about the “Residual cell uptake in presence of human serum” value ([2]; 1 μM, 2h at 37° C., uptake without serum = 100%) of the same molecule?
Its value is 80%.

And the “Residual uptake in the presence of c(RGDfK) as competitor” value ([2]; 100 μM c(RGDfK), uptake without competitor = 100%)?
The value was 10%.

What about the “Tumor-to-background ratio (TBR)” value [3] of the same molecule?
Its value is 1.2-1.5.
